Drawing on US20130005988A1, “2-AZETIDINEMETHANEAMINES AND 2-PYRROLIDINEMETHANEAMINES AS TAAR-LIGANDS” (priority 2007, published 2013), this text covers Ki and Kd for 16 compounds.

Each structure is given as a SMILES string.

The target in one assay is T1, TAAR1 (Mus musculus, UniProt Q923Y8).
T1 construct: expressed in transfected cells; host or cells: HEK293 (ATCC #CRL-1573), stably transfected with pIRESneo2 expression plasmid
T1 sequence (Q923Y8 whole entry): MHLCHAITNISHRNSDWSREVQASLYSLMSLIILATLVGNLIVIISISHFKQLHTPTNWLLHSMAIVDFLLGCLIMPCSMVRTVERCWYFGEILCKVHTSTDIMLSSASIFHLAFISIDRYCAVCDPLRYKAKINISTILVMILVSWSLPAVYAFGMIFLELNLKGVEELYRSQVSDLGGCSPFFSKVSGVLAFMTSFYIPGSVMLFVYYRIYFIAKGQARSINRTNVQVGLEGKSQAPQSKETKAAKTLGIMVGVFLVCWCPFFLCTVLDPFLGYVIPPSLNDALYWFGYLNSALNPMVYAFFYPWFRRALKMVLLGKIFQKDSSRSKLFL
In words: Radioligand binding on membranes of HEK293 cells stably expressing TAAR1. Particulars: radioligand [3H]-rac-2-(1,2,3,4-tetrahydro-1-naphthyl)-2-imidazoline at 60 nM, 4° C., 30 min. Here is the method: (§1) For the construction of expression plasmids the coding sequences of human, rat and mouse TAAR 1 were amplified from genomic DNA essentially as described by Lindemann et al.. The Expand High Fidelity PCR System (Roche Diagnostics) was used with 1.5 mM Mg^2+ and purified PCR products were cloned into pCR2.1-TOPO cloning vector (Invitrogen) following the instructions of the manufacturer. PCR products were subcloned into the pIRESneo2 vector (BD Clontech, Palo Alto, Calif.), and expression vectors were sequence verified before introduction in cell lines.
HEK293 cells (ATCC #CRL-1573) were cultured essentially as described Lindemann et al. (2005). For the generation of stably transfected cell lines HEK293 cells were transfected with the pIRESneo2 expression plasmids containing the TAAR coding sequences (described above) with Lipofectamine 2000 (Invitrogen) according to the instructions of the manufacturer, and 24 hrs post transfection the culture medium was supplemented with 1 mg/ml G418 (Sigma, Buchs, Switzerland). After a culture period of about 10 d clones were isolated, expanded and tested for responsiveness to trace amines (all compounds purchased from Sigma) with the cAMP Biotrak Enzyme immunoassay (EIA) System (Amersham) following the non-acetylation EIA procedure provided by the manufacturer.
Cells at confluence were rinsed with ice-cold phosphate buffered saline without Ca^2+ and Mg^2+ containing 10 mM EDTA and pelleted by centrifugation at 1000 rpm for 5 min at 4° C. The pellet was then washed twice with ice-cold phosphate buffered saline and cell pellet was frozen immediately by immersion in liquid nitrogen and stored until use at −80° C. Cell pellet was then suspended in 20 ml HEPES-NaOH (20 mM), pH 7.4 containing 10 mM EDTA, and homogenized with a Polytron (PT 3000, Kinematica) at 10,000 rpm for 10 s. The homogenate was centrifuged at 48,000×g for 30 min at 4° C. and the pellet resuspended in 20 ml HEPES-NaOH (20 mM), pH 7.4 containing 0.1 mM EDTA (buffer A), and homogenized with a Polytron at 10,000 rpm for 10 s. The homogenate was then centrifuged at 48,000×g for 30 min at 4° C. and the pellet resuspended in 20 ml buffer A, and homogenized with a Polytron at 10,000 rpm for 10 s. Protein concentration was determined by the method of Pierce (Rockford, Ill.). The homogenate was then centrifuged at 48,000×g for 10 min at 4° C., resuspended in HEPES-NaOH (20 mM), pH 7.0 including MgCl2 (10 mM) and […] homogenized with a Polytron at 10,000 rpm for 10 s.
Binding assay was performed at 4° C. in a final volume of 1 ml, and with an incubation time of 30 min. The radioligand [^3H]-rac-2-(1,2,3,4-tetrahydro-1-naphthyl)-2-imidazoline was used at a concentration equal to the calculated Kd value of 60 nM to give a bound at around 0.1% of the total added radioligand concentration, and a specific binding which represented approximately 70-80% of the total binding. Non-specific binding was defined as the amount of [^3H]-rac-2-(1,2,3,4-tetrahydro-1-naphthyl)-2-imidazoline bound in the presence of the appropriate unlabelled ligand (10 μM). Competing ligands were tested in a wide range of concentrations (10 pM-30 μM). […] Each experiment was performed in duplicate. All incubations were terminated by rapid filtration through UniFilter-96 plates (Packard Instrument Company) and glass filter GF/C, pre-soaked for at least 2 h in polyethylenimine 0.3%, and using a Filtermate 96 Cell Harvester (Packard Instrument Company). The tubes and filters were then washed 3 times with 1 ml aliquots of cold buffer B. Filters were not dried and soaked in Ultima gold (45 μl/well, Packard Instrument Company) and bound radioactivity was counted by a TopCount Microplate Scintillation Counter (Packard Instrument Company).
Turning to `CCN(C[C@H]1CCCN1)c1cccc(Oc2ccccc2)c1` [Example 3, Ethyl-(3-phenoxy-phenyl)-(R)-1-pyrrolidin-2-ylmethyl-amine], the Ki was determined as 0.0044 µM.
Still for that read-out and setting: under `CCN(C[C@@H]1CCCN1)c1cccc(Oc2ccccc2)c1` [Example 4, Ethyl-(3-phenoxy-phenyl)-(S)-1-pyrrolidin-2-ylmethyl-amine] stands 0.0172 µM.
On the same count and under the same terms, the same measure for `CCN(C[C@@H]1CCCN1)c1ccc(Cl)c(Cl)c1` [Example 6, (3,4-Dichloro-phenyl)-ethyl-(S)-1-pyrrolidin-2-ylmethyl-amine]: 0.0028 µM; for `COc1cc(N(C)C[C@@H]2CCCN2)ccc1Cl` [Example 8, (4-Chloro-3-methoxy-phenyl)-methyl-(8)-1-pyrrolidin-2-ylmethyl-amine]: 0.0859 µM.
As for `CCN(C[C@@H]1CCCN1)c1ccc(Cl)c(OC)c1` [Example 9, (4-Chloro-3-methoxy-phenyl)-ethyl-(8)-1-pyrrolidin-2-ylmethyl-amine], the Ki amounted to 0.0092 µM.
In turn, `CCN(C[C@@H]1CCCN1)c1ccc(Cl)cc1` [Example 11, (4-Chloro-phenyl)-ethyl-(8)-1-pyrrolidin-2-ylmethyl-amine] gave a Ki of 0.0131 µM.
The same measure, in the same setting: the same measure for `COc1cc(N(C[C@@H]2CCCN2)C(C)C)ccc1Cl` [Example 12, (4-Chloro-3-methoxy-phenyl)-isopropyl-(S)-1-pyrrolidin-2-ylmethyl-amine]: 0.0213 µM.
Still for that read-out and setting: the same measure for `CC(C)N(C[C@@H]1CCCN1)c1ccc(Cl)c(Cl)c1` [Example 13, (3,4-Dichloro-phenyl)-isopropyl-(S)-1-pyrrolidin-2-ylmethyl-amine]: 0.005 µM; for `CCN(C[C@H]1CCCN1)c1ccc(Cl)cc1` [Example 16, (4-Chloro-phenyl)-ethyl-(R)-1-pyrrolidin-2-ylmethyl-amine]: 0.0056 µM; for `CCN(C[C@@H]1CCN1)c1ccccc1` [Example 18, (S)-1-Azetidin-2-ylmethyl-ethyl-phenyl-amine]: 0.0092 µM.
The compound `CCN(C[C@@H]1CCN1)c1cccc(OC)c1` [Example 19, (S)-1-Azetidin-2-ylmethyl-ethyl-(3-methoxy-phenyl)-amine] registered a Ki of 0.0137 µM.
In turn, `CCN(C[C@@H]1CCN1)c1cccc(Br)c1` [Example 20, (S)-1-Azetidin-2-ylmethyl-(3-bromo-phenyl)-ethyl-amine] showed a Ki of 0.0047 µM.
On the same count and under the same terms, the same measure for `CN(C[C@@H]1CCN1)c1ccc(Cl)cc1` [Example 21, (S)-1-Azetidin-2-ylmethyl-(4-chloro-phenyl)-methyl-amine]: 0.021 µM.
In turn, `CC(C)N(C[C@@H]1CCN1)c1ccc(Cl)cc1` [Example 22, (S)-1-Azetidin-2-ylmethyl-(4-chloro-phenyl)-isopropyl-amine] had a Ki of 0.041 µM.
Consider `Clc1ccc(N(Cc2ccccc2)C[C@@H]2CCN2)cc1` [Example 23, (S)-1-Azetidin-2-ylmethyl-benzyl-(4-chloro-phenyl)-amine], for which affinity was put at a Ki of 0.0107 µM.

The target in a further assay is T1, TAAR1. The assay can be described thus: Radioligand Kd used in the TAAR1 binding assay. To be noted: radioligand in the TAAR1 membrane binding assay; species not stated; read-out: calculated Kd value. How it is done: as §1
Cells at confluence were rinsed with ice-cold phosphate buffered saline without Ca^2+ and Mg^2+ containing 10 mM EDTA and pelleted by centrifugation at 1000 rpm for 5 min at 4° C. The pellet was then washed twice with ice-cold phosphate buffered saline and cell pellet was frozen immediately by immersion in liquid nitrogen and stored until use at −80° C. […] Protein concentration was determined by the method of Pierce (Rockford, Ill.). […]
Binding assay was performed at 4° C. in a final volume of 1 ml, and with an incubation time of 30 min. […] The tubes and filters were then washed 3 times with 1 ml aliquots of cold buffer B. Filters were not dried and soaked in Ultima gold (45 μl/well, Packard Instrument Company) and bound radioactivity was counted by a TopCount Microplate Scintillation Counter (Packard Instrument Company).
With `c1ccc2c(c1)CCCC2C1=NCCN1` (racemic) [[^3H]-rac-2-(1,2,3,4-tetrahydro-1-naphthyl)-2-imidazoline], the Kd was 60 nM.
